Data on two molecules can be found in US11358992B2, “Cell-penetrating cereblon recombinant fusion protein and use thereof” (UPPTHERA, priority 2020, dated 2022).

This series relates to MM1.S lenalidomide-resistant cells. The experiment in a line: Cell viability (EZ-Cytox) of lenalidomide-resistant multiple myeloma cells. The note with it: 42 hours culture + 3 hours EZ-Cytox, absorbance 450 nm. In kind it is cell-based. The protocol:
The MM1.S cell line (American Type Culture Collection, ATCC from USA) was incubated in RPMI1640 medium containing 10% FBS and 1% penicillin/streptomycin at 37° C. under 5% CO2. The Lenalidomide-resistant MM1.S cell line was established by gradually adding […] lenalidomide (Sigma-Aldrich, Cat No. D2438) from 5 μM to 200 μM to the cell line culture.
In order to evaluate cytotoxic effects of the 30Kcα-CRBN recombinant fusion protein, 1×104 MM1.S lenalidomide-resistant cells were seeded in each well of a 96 well plate. 200 μM of lenalidomide and/or 3 μM of 30Kcα-CRBN recombinant fusion protein were added to each well according to the experimental group. The total medium volume of each well was adjusted to 100 μL. Then, each medium was cultured for 42 hours, and 10 μl of EZ-Cytox (Cat. No. EZ-3000 from Dogen) was added to each well, followed by incubation for 3 hours. Thereafter, absorbance was measured at 450 nm using a microplate reader (Clarostar™ from BMGlabtech), and a cell viability (%) was calculated by using the measured absorbance and shown in FIG. 2.

`Nc1cccc2c1CN(C1CCC(=O)NC1=O)C2=O` (centres unmarked) [lenalidomide]: for the setting “lenalidomide 200 μM alone, without 30Kcα-CRBN fusion protein, FIG. 2A”, the cell viability entry is “could not be reduced”.

B1: 30Kcα-CRBN recombinant fusion protein: Fusion recombinant protein of 30Kc19 α-helix domain (30Kc19α, SEQ ID NO: 1) linked N-terminally to human cereblon (SEQ ID NO: 2) (protein)
chain: ADSDVPNDILEEQLYNSVVVADYDSAVEKSKHLYEEKKSEVITNVVNKLIRNNKMNCMEYAYQLWLQGSKDIVRDCFPVEFRLIFAENMAGEGDQQDAAHNMGNHLPLLPAESEEEDEMEVEDQDSKEAKKPNIINFDTSLPTSHTYLGADMEEFHGRTLHDDDSCQVIPVLPQVMMILIPGQTLPLQLFHPQEVSMVRNLIQKDRTFAVLAYSNVQEREAQFGTTAEIYAYREEQDFGIEIVKVKAIGRQRFKVLELRTQSDGIQQAKVQILPECVLPSTMSAVQLESLNKCQIFPSKPVSREDQCSYKWWQKYQKRKFHCANLTSWPRWLYSLYDAETLMDRIKKQLREWDENLKDDSLPSNPIDFSYRVAACLPIDDVLRIQLLKIGSAIQRLRCELDIMNKCTSLCCKQCQETEITTKNEIFSLSLCGPMAAYVNPHGYVHETLTVYKACNLNLIGRPSTEHSWFPGYAWTVAQCKICASHIGWKFTATKKDMSPQKFWGLTRSALLPTIPDTEDEISPDKVILCL
modifications: 30Kc alpha-CRBN
As to B1, the “reduction of cell viability compared with the control” value (3 μM 30Kcα-CRBN fusion protein in combination with 200 μM lenalidomide, FIG. 2B) is reported as about 50%.
